How the values were obtained:
[1] = biological target: T1, hTLR4 (Homo sapiens, UniProt O00206+Q9Y6Y9); assay: HEK-Blue hTLR4 SEAP reporter assay (NF-κB/AP-1 activation); format: cell-based; conditions: HEK-Blue hTLR4 cells, 16-18 hours
T1 construct: host or cells: HEK-Blue hTLR4 (HEK cells)
Method: (§1) HEK-Blue™ hTLR4 (FIG. 1A) and HEK-Blue™ Null2 (FIG. 1B) cells were treated with the indicated concentrations of compounds FP11, FP111, and with LPS (100 ng/mL) and incubated for 16-18 hours. Results were normalized to stimulation with LPS alone, and are expressed as mean of percentage ±ES. of at least three independent experiments.
HEK-Blue™ hTLR4 cells were treated with increasing concentrations of compound FP11 and of LPS and incubated for 16-18 hours. Results were normalized to maximum activation of the reporter produced by LPS (FIG. 2A) and to maximum activation of the reporter produced by the compound itself (FIG. 2B). Data were fitted to a sigmoidal four-parameter logistic equation in order to determine IC50 values, and expressed as mean of percentage ±ES of at least three independent experiments.
HEK-Blue™ hTLR4 cells are HEK cells transfected so as to stably express human receptors hTLR4, hMD-2, and hCD14 for endotoxin recognition. In addition, said cells have a reporter gene encoding for a secreted alkaline phosphatase (SEAP) μlaced under the control of specific transcription factors (NF-κB and AP-1) activated by the TLR4 signaling pathway. Therefore, the presence of LPS or of an agonist of TLR4 causes receptor dimerization, activation of the signaling pathway and of transcription factors NF-κB and AP-1, and finally SEAP production and secretion into the culture medium. SEAP levels can be subsequently quantitated by incubating the medium with compound p-nitrophenylphosphate (pNPP) and monitoring with a spectrophotometer the formation of p-nitrophenol chromogenic product at 405 nm.
HEK-Blue™ hTLR4 cells (InvivoGen) were cultured according to manufacturer's instruction. […]
Cells were detached using a cell scraper, counted and seeded in a 96-well multiwell plate at a density of 4×10^4 cells per well. […]
The wells' optical density was determined using a microplate reader set at 405 nm.
The results were normalized with positive control (LPS alone) and expressed as a mean of percentage ±SEM of at least three independent experiments.

[2] = tested on: HEK-Blue™ Null2 cells; assay: HEK-Blue Null2 counter-assay (SEAP reporter, no TLR4/MD-2/CD14); format: cell-based; conditions: 16-18 hours
Method: as §1
In order to be certain that the agonist effect of compound FP11 be due to the interaction with the TLR4 receptor, the compounds were tested on the HEK-Blue™ Null2 cell line. Said line expresses the same reporter gene of HEK-Blue™ hTLR4 cells (SEAP), but has none of the receptors involved in endotoxin recognition (TLR4, MD-2, CD14).

[3] = tested on: HEK-Blue™ hTLR4 cells; assay: MTT cell viability assay; format: cell-based; conditions: 25 and 50 μM, 16-18 hours
Method: HEK-Blue™ hTLR4 cells were treated with the higher concentrations used in the preceding assays and incubated for 16-18 hours. Results were normalized to PBS addition and are expressed as mean of percentage ±ES. of at least three independent experiments.
Finally, compound FP11 cytotoxicity was assessed by MTT (3-(4,5-dimethylthiazol-2-yl)-2,5-diphenyltetrazolium bromide) viability assay. HEK-Blue™ hTLR4 cells were treated with the highest compound concentrations used in the preceding assay (25 and 50 μM).
HEK-Blue™ hTLR4 cells were grown in DMEM supplemented with 10% FBS, 2 mM glutamine and antibiotics.
Cells were seeded in 100 μL of DMEM without Phenol Red at a density of 4×10^4 cells per well and incubated overnight (37° C., 5% CO2 , 95% humidity).
Cells were treated with the higher dose of compound used in the previous experiments and incubated overnight. MTT solution (5 mg/mL in PBS) was added to each well, and after 3 h incubation, 0.1 N HCl in 2-propanol solution was used to dissolve formazan crystals.
Formazan concentration was determined by measuring the absorbance at 570 nm.
The results were normalized with untreated control (PBS) and expressed as the mean of percentage ±SEM of three independent experiments.

[4] = biological target: T2, purified human MD-2 receptor (Homo sapiens, UniProt Q9Y6Y9); assay: Biotinylated LPS displacement from MD-2 hydrophobic pocket (ELISA); format: binding
T2 sequence (Q9Y6Y9 19-160): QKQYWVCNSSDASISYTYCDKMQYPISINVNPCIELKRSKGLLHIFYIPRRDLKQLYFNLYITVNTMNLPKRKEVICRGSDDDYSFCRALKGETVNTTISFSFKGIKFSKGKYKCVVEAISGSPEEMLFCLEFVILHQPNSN
Method: The ability to displace LPS from MD-2 hydrophobic pocket was assessed by using an ELISA assay. Molecules FP11 and FP111 were added at increasing concentrations to MD-2 which had previously been incubated with biotinylated LPS.
The ability of the compounds to displace LPS from MD-2 hydrophobic pocket was determined by ELISA.
A microtiter plate was coated overnight at 4° C. with 100 μL/well of 5 μg/mL chicken polyclonal anti-MD-2 antibodies, diluted in 50 mM Na2CO3 buffer, pH 9.6, and blocked with 1% BSA in PBS. After washing, 1 μM MD-2 with biotin-labeled LPS was added and incubated for 2 h. After washing, the compounds were added at different concentrations and incubated for 1.5 h.
After washing, 0.5 μg/mL HRP-conjugated streptavidin (Sigma) in PBS was added, followed by detection at 420 nm after the addition of 100 μL of ABTS (Sigma). Chicken anti-MD-2 polyclonal antibodies were prepared against recombinant MD-2 by GenTel (Madison, Wis., USA),

T1 sequence (O00206 24-839): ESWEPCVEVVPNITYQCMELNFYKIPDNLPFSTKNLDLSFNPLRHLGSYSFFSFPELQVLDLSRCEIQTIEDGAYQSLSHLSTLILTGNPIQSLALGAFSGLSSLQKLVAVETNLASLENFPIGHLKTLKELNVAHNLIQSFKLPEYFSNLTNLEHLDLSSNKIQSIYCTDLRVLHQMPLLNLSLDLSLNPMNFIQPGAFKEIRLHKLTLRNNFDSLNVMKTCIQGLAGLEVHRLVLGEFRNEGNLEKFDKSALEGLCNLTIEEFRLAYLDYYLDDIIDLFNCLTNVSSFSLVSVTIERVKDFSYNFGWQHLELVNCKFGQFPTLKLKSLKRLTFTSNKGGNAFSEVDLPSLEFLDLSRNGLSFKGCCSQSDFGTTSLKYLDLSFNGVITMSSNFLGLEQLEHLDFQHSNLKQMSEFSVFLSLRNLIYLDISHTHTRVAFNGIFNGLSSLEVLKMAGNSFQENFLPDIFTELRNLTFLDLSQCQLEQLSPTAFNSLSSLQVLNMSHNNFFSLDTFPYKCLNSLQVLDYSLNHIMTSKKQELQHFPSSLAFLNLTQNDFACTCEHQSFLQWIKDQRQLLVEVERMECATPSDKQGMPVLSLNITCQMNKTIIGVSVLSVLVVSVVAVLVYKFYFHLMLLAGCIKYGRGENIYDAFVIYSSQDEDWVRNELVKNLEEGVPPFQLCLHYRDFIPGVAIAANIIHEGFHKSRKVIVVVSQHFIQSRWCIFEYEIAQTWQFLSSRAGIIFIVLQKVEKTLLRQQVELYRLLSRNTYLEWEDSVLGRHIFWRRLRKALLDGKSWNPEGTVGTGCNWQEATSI
T1 sequence (Q9Y6Y9 17-160 limits assumed): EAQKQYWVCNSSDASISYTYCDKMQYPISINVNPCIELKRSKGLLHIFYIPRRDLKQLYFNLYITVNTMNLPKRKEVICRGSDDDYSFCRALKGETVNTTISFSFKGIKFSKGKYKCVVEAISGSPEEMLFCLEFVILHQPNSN

SMILES: CCCCCCCCCCCCCC(=O)NC1C(OC(=O)CCCCCCCCCCCCC)[C@H](OC(=O)CCCCCCCCCCCCC)C(CO)O[C@H]1OP(=O)(O)O (stereo partly drawn) [FP11, 1-O-Phosphoryl-2-deoxy-4-O-tetradecanoyl 3-O-tetradecanoyl-2-tetradecanoylamino-α-D-glucopiranoside]
- concentrations at which activation of NF-κB and AP-1 is induced ([1]; SEAP reporter): > 5 µM
- EC50 ([1]; dose-response curve): 12.3 µM
- activation of transcription factors NF-κB and AP-1 in cells without TLR4, MD-2, CD14 [2]: unable to activate transcription factors NF-κB and AP-1
- cytotoxicity (MTT viability) [3]: not toxic at the concentrations assayed
- displacement of biotinylated LPS from MD-2 ([4]; 160 μM): 55%
- ability to displace biotinylated LPS from MD-2 hydrophobic pocket ([4]; increasing concentrations, highest 160 μM): displaces biotinylated LPS from MD-2 hydrophobic pocket in a dose-dependent manner

— patent US20230037862A1, “SYNTHETIC AGONISTS OF TLR4 RECEPTOR” (UNIVERSITÀ DEGLO STUDI DI MILANO - BICOCCA, priority 2017, published 2023)
